Converted amounts (≈) assume the structure as drawn. Read-outs that look alike come from different tables or passages of the source. One block for each compound: values may come before it.
Experiments:
[1] = Measurement of stability of anisomycin derivatives in rat plasma; assay type: in vitro ADME
Protocol: Experiment 1: Measurement of stability of anisomycin derivatives in rat plasma
To investigate the stability of the present compounds in rat plasma, the half-life thereof was measured. For the measurement, an approximately 0.25 mg portion of each test compound was dissolved in 150 μl of rat plasma, and the solution was incubated at 37° C. Aliquots were taken over specific periods of time, and the amount of residual anisomycin derivative was measured by HPLC to determine the half-life thereof.

[2] = test system: Saccharomyces cereviceae; assay: Antifungal activity: growth inhibition of Saccharomyces cereviceae; assay type: cell-based; conditions: potato dextrose agar, 25° C., 7 days
Protocol: (§1) Experiment 3: Measurement of antifungal activity of anisomycin derivatives
(§2) The growth-inhibiting activity of the present compounds against various fungi was investigated. Into each well of a 6-well microplate, 0.3 ml of a solution of each test compound and 2.7 ml of a sterile solution of potato dextrose agar culture medium (kept at a temperature of about 50° C.) were added. After solidification, 5 μl from each suspension of test cells (yeast: approx. 10^3 cells/ml; mold: approx. 10^4 spores/ml) was inoculated onto the above-mentioned agar medium, and the cultures were maintained at 25° C. for 7 days. The growth of the test cells was observed, and the minimum concentration (MIC value) was determined at which complete inhibition of growth occurred. The test compounds were used after adjustment to 1 mg/ml with dimethylsulfoxide and dilution with distilled water.

[3] = test system: Candida albicans; assay: Antifungal activity: growth inhibition of Candida albicans; assay type: cell-based; conditions: potato dextrose agar, 25° C., 7 days
Protocol: as §1, §2

[4] = test system: Aspergillus fumigatus; assay: Antifungal activity: growth inhibition of Aspergillus fumigatus; assay type: cell-based; conditions: potato dextrose agar, 25° C., 7 days
Protocol: as §1, §2

[5] = test system: Cryptococcus neoformans; assay: Antifungal activity: growth inhibition of Cryptococcus neoformans; assay type: cell-based; conditions: potato dextrose agar, 25° C., 7 days
Protocol: as §1, §2

[6] = test system: P388 leukemia tumor cells; assay: Antitumor effect of anisomycin derivatives in vivo (P388 leukemia, CDF1 mice); parameters: species or system mouse; conditions: P388 i.p. in CDF1 mice; 10 mg/kg i.p. once a day for 10 days
Protocol: Experiment 4: Antitumor effect of anisomycin derivatives in vivo
Into one group of 5 CDF1 mice, 1×10^6 P388 leukemia tumor cells were intraperitoneally transplanted. Beginning the next day, a 10 mg/kg portion of the test compound dissolved in 0.2 ml of a solution containing an equal volume of dimethylsulfoxide and saline was administered to the mice intraperitoneally once a day for 10 days. The increase in the life span of the mice in days (ILS) was determined according to the following equation: [formula]

[7] = test system: FM3A cells; assay: Inhibitory activity on proliferation of FM3A culture; assay type: cell-based, mouse; conditions: for IC50: Mus musculus, read-out: IC50 (50% proliferation inhibition concentration)
Protocol: Experiment 2: Measurement of inhibitory activity of anisomycin derivatives on proliferation of FM3A culture
The proliferation-inhibiting activity of the present compounds against a culture of FM3A cells derived from mouse mammary tumor was investigated. Into each well of a 96-well microplate was added 50 μl of 10^5 cells/ml of FM3A cells, which had been suspended in a Dulbecco-modified Eagle culture medium containing 10% fetal calf serum. The IC50 (50% proliferation inhibition concentration) was calculated based on the number of surviving cells for a prescribed concentration of the test compounds.

[8] = test system: Mucor rouxii; assay: Antifungal activity: growth inhibition of Mucor rouxii; assay type: cell-based; conditions: potato dextrose agar, 25° C., 7 days
Protocol: as §1, §2

[9] = test system: protein synthesis; conditions: in words; J. Biol. Chem., vol. 242, p. 3226, 1967; cited from earlier work
[10] = Stability in the blood; conditions: in words
[11] = 168 h, read-out: MIC (minimum concentration at which complete inhibition of growth occurred)

Compound: CCCCCCC(=O)OC1CNC(Cc2ccc(OC)cc2)C1OC(N)=O (stereo not shown) [Example 17, 4-O-heptanoyl-3-O-carbamoyldeacetylanisomycin]
IC50 [7]: 0.03 µg/mL (≈ 0.0793 µM)

Compound: COc1ccc(CC2NCC(O)C2OC(C)=O)cc1 (single isomer, unassigned) [Anisomycin, anisomycin]
cytotoxic activity [9]: strong cytotoxic activity due to its inhibitory effect on protein synthesis
stability in the blood [10]: extremely unstable in the blood and is rapidly hydrolyzed
MIC (minimum concentration at which complete inhibition of growth occurred) [2]: 12.5 µg/mL
MIC (minimum concentration at which complete inhibition of growth occurred) [3]: 100 µg/mL
MIC (minimum concentration at which complete inhibition of growth occurred) [4]: > 100 µg/mL
MIC (minimum concentration at which complete inhibition of growth occurred) [5]: 25 µg/mL
ILS (increase in the life span of the mice) [6]: 0%
Half-life ([1]; rat plasma, 37° C., residual amount by HPLC, read-out: Half-life): 0.05 h
IC50 (50% proliferation inhibition concentration) [7]: 0.02 µg/mL (≈ 0.0754 µM)
MIC (minimum concentration at which complete inhibition of growth occurred) [8]: > 100 µg/mL

Compound: CCCCCC(=O)OC1CNC(Cc2ccc(OC)cc2)C1OC(N)=O (stereo not shown) [Example 16, 4-O-hexanoyl-3-O-carbamoyldeacetylanisomycin]
IC50 [7]: 0.039 µg/mL (≈ 0.107 µM)

Compound: COCOC1C(O)CNC1Cc1ccc(OC)cc1 (stereo not shown) [Example 22, 3-O-methoxymethyldeacetylanisomycin]
Half-life [1]: No decomposition
IC50 [7]: 0.062 µg/mL (≈ 0.232 µM)

Continued, in another order:

Half-life [1]: No decomposition
Compound: COc1ccc(CC2NCC(O)C2OC(N)=O)cc1 (stereo not shown) [Example 2, 3-O-carbamoyldeacetylanisomycin]

MIC [2, 11]: 25 µg/mL (≈ 55.7 µM)
MIC [3, 11]: 50 µg/mL (≈ 111 µM)
MIC [4, 11]: 50 µg/mL (≈ 111 µM)
MIC [5, 11]: 3.1 µg/mL (≈ 6.91 µM)
MIC ([8]; Amylomyces rouxii, 168 h, read-out: MIC (minimum concentration at which complete inhibition of growth occurred)): 50 µg/mL (≈ 111 µM)
Compound: CCCCCCCCCCCC(=O)OC1CNC(Cc2ccc(OC)cc2)C1OC(N)=O (stereo not shown) [Example 18, 4-O-dodecanoyl-3-O-carbamoyldeacetylanisomycin]
ILS (increase in the life span of the mice) [6]: 44%
IC50 [7]: < 0.02 µg/mL

Half-life [1]: No decomposition
Compound: COc1ccc(CC2NCC(O)C2OC(=O)NCCCc2ccccc2)cc1 (stereo not shown) [Example 5, 3-O-(3-phenylpropyl)carbamoyldeacetylanisomycin]

Half-life ([1]; rat, plasma): 6.67 h
Compound: COc1ccc(CC2NCC(OC(C)=O)C2OC(N)=O)cc1 (stereo not shown) [Example 15, 4-O-acetyl-3-O-carbamoylanisomycin]
IC50 [7]: 0.039 µg/mL (≈ 0.126 µM)

Half-life [1]: No decomposition
Compound: CNC(=O)OC1C(O)CNC1Cc1ccc(OC)cc1 (stereo not shown) [Example 1, 3-O-methylcarbamoyl-deacetylanisomycin]
IC50 [7]: 0.06 µg/mL (≈ 0.214 µM)

Half-life [1]: No decomposition
Compound: COc1ccc(CC2NCC(O)C2OC(=O)Nc2ccccc2)cc1 (stereo not shown) [Example 11, 3-O-phenylcarbamoyldeacetylanisomycin]
